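Tested at 5 concentrations; 48 h exposure; 96-well plates; endpoints linearly interpolated, else capped at highest concentration. TGI marks complete inhibition of growth.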
Experiments:
Experiment in all cases: NCI tumour cell line growth inhibition, 48 h
786-0 renal = tested on: 786-0 renal
A498 renal = tested on: A498 renal
A549 NSCLC = tested on: A549 NSCLC
ACHN renal = tested on: ACHN renal
BT-549 breast = tested on: BT-549 breast
CAKI-1 renal = tested on: CAKI-1 renal
CCRF-CEM leukemia = tested on: CCRF-CEM leukemia
COLO 205 colon = tested on: COLO 205 colon
DU-145 prostate = tested on: DU-145 prostate
EKVX NSCLC = tested on: EKVX NSCLC
HCC-2998 colon = tested on: HCC-2998 colon
HCT-116 colon = tested on: HCT-116 colon
HCT-15 colon = tested on: HCT-15 colon
HOP-62 NSCLC = tested on: HOP-62 NSCLC
HOP-92 NSCLC = tested on: HOP-92 NSCLC
HT29 colon = tested on: HT29 colon
IGROV1 ovarian = tested on: IGROV1 ovarian
K-562 leukemia = tested on: K-562 leukemia
KM12 colon = tested on: KM12 colon
LOX IMVI melanoma = tested on: LOX IMVI melanoma
M14 melanoma = tested on: M14 melanoma
MCF7 breast = tested on: MCF7 breast
MDA-MB-231 breast = tested on: MDA-MB-231 breast
MDA-MB-435 = tested on: MDA-MB-435
MDA-N = tested on: MDA-N
MOLT-4 leukemia = tested on: MOLT-4 leukemia
NCI-H226 lung = tested on: NCI-H226 lung
NCI-H23 lung = tested on: NCI-H23 lung
NCI-H460 lung = tested on: NCI-H460 lung
NCI-H522 lung = tested on: NCI-H522 lung
NCI/ADR-RES ovarian = tested on: NCI/ADR-RES ovarian
OVCAR-3 ovarian = tested on: OVCAR-3 ovarian
OVCAR-4 ovarian = tested on: OVCAR-4 ovarian
OVCAR-5 ovarian = tested on: OVCAR-5 ovarian
OVCAR-8 ovarian = tested on: OVCAR-8 ovarian
PC-3 prostate = tested on: PC-3 prostate
RPMI-8226 leukemia = tested on: RPMI-8226 leukemia
RXF 393 renal = tested on: RXF 393 renal
SF-295 CNS = tested on: SF-295 CNS
SK-MEL-2 melanoma = tested on: SK-MEL-2 melanoma
SK-MEL-28 melanoma = tested on: SK-MEL-28 melanoma
SK-MEL-5 melanoma = tested on: SK-MEL-5 melanoma
SK-OV-3 ovarian = tested on: SK-OV-3 ovarian
SN12C renal = tested on: SN12C renal
SNB-19 CNS = tested on: SNB-19 CNS
SNB-75 CNS = tested on: SNB-75 CNS
SW-620 colon = tested on: SW-620 colon
TK-10 renal = tested on: TK-10 renal
U251 CNS = tested on: U251 CNS
UACC-62 melanoma = tested on: UACC-62 melanoma
UO-31 renal = tested on: UO-31 renal
HL-60(TB) leukemia = tested on: HL-60(TB) leukemia
HS 578T breast = tested on: HS 578T breast
SF-268 CNS = tested on: SF-268 CNS
SR leukemia = tested on: SR leukemia
T-47D breast = tested on: T-47D breast
UACC-257 melanoma = tested on: UACC-257 melanoma

CC1(C)C(=O)C=CC2(C)C1CC(O)C1(C)C2CCC2(C)C(c3ccoc3)OC(=O)C3OC321 (centres undefined)
TGI (786-0 renal): 28.3 µM
TGI (A498 renal): 28.8 µM
TGI (A549 NSCLC): 69.8 µM
TGI (ACHN renal): 30.3 µM
TGI (BT-549 breast): 41.1 µM
TGI (CAKI-1 renal): 31.4 µM
TGI (CCRF-CEM leukemia): 57.5 µM
TGI (COLO 205 colon): 50.3 µM
TGI (DU-145 prostate): 51.4 µM
TGI (EKVX NSCLC): 33.2 µM
TGI (HCC-2998 colon): 26.2 µM
TGI (HCT-116 colon): 31.7 µM
TGI (HCT-15 colon): 23.6 µM
TGI (HOP-62 NSCLC): 85.7 µM
TGI (HOP-92 NSCLC): 38.5 µM
TGI (HT29 colon): 33.7 µM
TGI (IGROV1 ovarian): 33.9 µM
TGI (K-562 leukemia): > 100 µM
TGI (KM12 colon): 28.7 µM
TGI (LOX IMVI melanoma): 38.9 µM
TGI (M14 melanoma): > 100 µM
TGI (MCF7 breast): > 100 µM
TGI (MDA-MB-231 breast): 36.7 µM
TGI (MDA-MB-435): 72.7 µM
TGI (MDA-N): 41.8 µM
TGI (MOLT-4 leukemia): 27.2 µM
TGI (NCI-H226 lung): 33.3 µM
TGI (NCI-H23 lung): 28.6 µM
TGI (NCI-H460 lung): 27.6 µM
TGI (NCI-H522 lung): 27.1 µM
TGI (NCI/ADR-RES ovarian): 30.5 µM
TGI (OVCAR-3 ovarian): 36 µM
TGI (OVCAR-4 ovarian): 38.4 µM
TGI (OVCAR-5 ovarian): > 100 µM
TGI (OVCAR-8 ovarian): 26.8 µM
TGI (PC-3 prostate): > 100 µM
TGI (RPMI-8226 leukemia): 47.9 µM
TGI (RXF 393 renal): 33.6 µM
TGI (SF-295 CNS): 53.1 µM
TGI (SK-MEL-2 melanoma): 35.1 µM
TGI (SK-MEL-28 melanoma): 70.3 µM
TGI (SK-MEL-5 melanoma): 21.8 µM
TGI (SK-OV-3 ovarian): > 100 µM
TGI (SN12C renal): 37.4 µM
TGI (SNB-19 CNS): 44.3 µM
TGI (SNB-75 CNS): 39.5 µM
TGI (SW-620 colon): 59.9 µM
TGI (TK-10 renal): 37.5 µM
TGI (U251 CNS): 40.5 µM
TGI (UACC-62 melanoma): 26.9 µM
TGI (UO-31 renal): 25.8 µM

C=C(CCOC)CCC1CCCCC(=C)[C@H]1O (some centres undefined)
TGI (786-0 renal): > 100 µM
TGI (A498 renal): > 100 µM
TGI (A549 NSCLC): > 100 µM
TGI (ACHN renal): > 100 µM
TGI (CAKI-1 renal): > 100 µM
TGI (CCRF-CEM leukemia): > 100 µM
TGI (COLO 205 colon): > 100 µM
TGI (DU-145 prostate): > 100 µM
TGI (EKVX NSCLC): > 100 µM
TGI (HCT-116 colon): > 100 µM
TGI (HCT-15 colon): > 100 µM
TGI (HL-60(TB) leukemia): > 100 µM
TGI (HOP-62 NSCLC): > 100 µM
TGI (HOP-92 NSCLC): > 100 µM
TGI (HS 578T breast): > 100 µM
TGI (HT29 colon): > 100 µM
TGI (IGROV1 ovarian): > 100 µM
TGI (K-562 leukemia): > 100 µM
TGI (KM12 colon): > 100 µM
TGI (M14 melanoma): > 100 µM
TGI (MCF7 breast): > 100 µM
TGI (MDA-MB-231 breast): > 100 µM
TGI (MDA-MB-435): > 100 µM
TGI (MDA-N): > 100 µM
TGI (MOLT-4 leukemia): > 100 µM
TGI (NCI-H226 lung): > 100 µM
TGI (NCI-H23 lung): > 100 µM
TGI (NCI-H460 lung): > 100 µM
TGI (NCI-H522 lung): > 100 µM
TGI (NCI/ADR-RES ovarian): > 100 µM
TGI (OVCAR-3 ovarian): > 100 µM
TGI (OVCAR-4 ovarian): > 100 µM
TGI (OVCAR-5 ovarian): > 100 µM
TGI (OVCAR-8 ovarian): > 100 µM
TGI (PC-3 prostate): > 100 µM
TGI (RPMI-8226 leukemia): > 100 µM
TGI (SF-268 CNS): > 100 µM
TGI (SF-295 CNS): > 100 µM
TGI (SK-MEL-2 melanoma): > 100 µM
TGI (SK-MEL-28 melanoma): > 100 µM
TGI (SK-MEL-5 melanoma): > 100 µM
TGI (SK-OV-3 ovarian): > 100 µM
TGI (SN12C renal): > 100 µM
TGI (SNB-19 CNS): > 100 µM
TGI (SNB-75 CNS): > 100 µM
TGI (SR leukemia): > 100 µM
TGI (SW-620 colon): > 100 µM
TGI (T-47D breast): > 100 µM
TGI (TK-10 renal): > 100 µM
TGI (U251 CNS): > 100 µM
TGI (UACC-257 melanoma): > 100 µM
TGI (UACC-62 melanoma): > 100 µM
TGI (UO-31 renal): > 100 µM

— PubChem BioAssay (NCI)
